Data set [1] relates to Staphylococcus aureus. Description: Antibacterial activity against methicillin-sensitive Staphylococcus aureus ATCC 29213 clinical isolate assessed as bacterial growth inhibition at 256 to 0.125 ug/ml in CAMH broth medium incubated for 16 to 20 hrs by broth microdilution method. It counts as functional. Particulars: dose 256-0.125 µg/ml, time 16-20 hrs. A general note: Broth dilution looks for growth in wells or tubes with falling amounts of substance.

Data set [2] can be described thus: Hemolytic activity in human RBC assessed as hemolysis incubated for 1 hr by absorbance based assay. It counts as toxicity, cell-based, Erythrocyte. The note with it: human red blood cells.
The subject of data set [3] is Staphylococcus aureus. Description: Antibacterial activity against methicillin-resistant Staphylococcus aureus ATCC USA 300 clinical isolate assessed as bacterial growth inhibition at 256 to 0.125 ug/ml in CAMH broth medium incubated for 16 to 20 hrs by broth microdilution method. The class given is functional. The note with it: dose 256-0.125 µg/ml, time 16-20 hrs.

Data set [4] can be described thus: Therapeutic index, ratio of HC50 for human RBC to MIC for antibacterial activity against methicillin-sensitive Staphylococcus aureus ATCC 29213 clinical isolate. The note with it: pooled result: one value given for 2 cell lines, strains, targets or settings, read-out: TI. The class given is toxicity, cell-based.
The nature of data set [5]: Nephrotoxicity against HEK293 cells assessed as cell viability incubated for 24 hrs by MTT assay. It counts as toxicity, cell-based. The note with it: human.
A short description of data set [6]: Retention time of the compound by RP-HPLC analysis. It counts as physicochemical.

Values after ≈ are worked out from the molar mass of the structure shown. Peptide text beside a SMILES is read from it.

As a reminder, the MIC is the smallest concentration in the dilution series that meets the test's criterion for growth inhibition. In general, HC50 refers to the concentration giving 50% haemolysis. As usually defined, the IC50 is the midpoint of a concentration-inhibition curve. In the case of `CC(C)C[C@@H]1NC(=O)[C@H](CCCN)NC(=O)[C@H](C(C)(C)C)NC(=O)[C@@H]2CCCN2C(=O)[C@@H](Cc2ccccc2)NC(=O)[C@H](CC(C)C)NC(=O)[C@H](CCCN)NC(=O)[C@H](C(C)C)NC(=O)[C@@H]2CCCN2C(=O)[C@@H](CCCNC(=N)N)NC1=O`, the MIC in the data set on Staphylococcus aureus [1] and in the data set on Staphylococcus aureus [3] was 6 µg/mL (≈ 5.15 µM) each time. Also, in data set [2], the HC50 at 1 h turned out to be 60.2 µg/mL. Further, in data set [4], the selectivity ratio amounted to 10. Moreover, in data set [5], the IC50 at 24 h was found to be 19.5 µg/mL (≈ 16.8 µM). Also, the Retention_time in data set [6] came to 16.8 min.

Consider `CC(C)C[C@@H]1NC(=O)[C@H](CCCN)NC(=O)[C@H](C(C)(C)C)NC(=O)[C@@H]2CCCN2C(=O)[C@@H](CCCNC(=N)N)NC(=O)[C@H](CC(C)C)NC(=O)[C@H](CCCN)NC(=O)[C@H](C(C)C)NC(=O)[C@@H]2CCCN2C(=O)[C@@H](Cc2ccccc2)NC1=O`, for which the MIC with Staphylococcus aureus [1] and in the data set with Staphylococcus aureus [3] was 7 µg/mL (≈ 6.01 µM) in each case. In addition, the HC50 at 1 h in data set [2] was determined as 50.5 µg/mL. Besides, the selectivity ratio in data set [4] worked out at 7.21. For the same molecule, the half-maximal inhibitory concentration (IC50) at 24 h in data set [5] came out at 38.1 µg/mL (≈ 32.7 µM). In data set [6], this molecule registered a Retention_time of 16.79 min.

On to `CC(C)C[C@@H]1NC(=O)[C@H](CCCN)NC(=O)[C@H](C(C)C)NC(=O)[C@H](Cc2c[nH]c3ccccc23)NC(=O)[C@@H](Cc2c[nH]c3ccccc23)NC(=O)[C@H](CC(C)C)NC(=O)[C@H](CCCN)NC(=O)[C@H](C(C)C)NC(=O)[C@H](Cc2c[nH]c3ccccc23)NC(=O)[C@@H](Cc2c[nH]c3ccccc23)NC1=O`, for which the MIC in the data set on Staphylococcus aureus [1] and with Staphylococcus aureus [3] was 32 µg/mL (≈ 22.9 µM) throughout. Moreover, the 50% haemolytic concentration (HC50) at 1 h in data set [2] was 55.6 µg/mL. The selectivity ratio in data set [4] is 1.74. In data set [5], the IC50 at 24 h turned out to be 19.7 µg/mL (≈ 14.1 µM). In data set [6], this molecule had a Retention_time of 18.69 min.

As for `CC(C)C[C@@H]1NC(=O)[C@H](CCCN)NC(=O)[C@H](C(C)C)NC(=O)[C@@H]2CCCN2C(=O)[C@@H](Cc2ccccc2)NC(=O)[C@H](CC(C)C)NC(=O)[C@H](CCCN)NC(=O)[C@H](C(C)C)NC(=O)[C@H](Cc2c[nH]c3ccccc23)NC(=O)[C@@H](Cc2ccccc2)NC1=O` (HELM PEPTIDE1{L.[dF].P.V.[Orn].L.[dF].W.V.[Orn]}$PEPTIDE1,PEPTIDE1,1:R1-10:R2$$$V2.0), the MIC in the data set with Staphylococcus aureus [1] and in the data set on Staphylococcus aureus [3] was 4 µg/mL (≈ 3.25 µM) in each case. Also, the HC50 at 1 h in data set [2] came to 9.04 µg/mL. For the same molecule, in data set [4], the selectivity ratio was found to be 2.26. For the same molecule, the IC50 at 24 h in data set [5] is 5.07 µg/mL (≈ 4.12 µM). This molecule had a Retention_time in data set [6] of 18.78 min.

Consider `CC(C)C[C@@H]1NC(=O)[C@H](CCCN)NC(=O)[C@H](C(C)C)NC(=O)[C@@H]2CCCN2C(=O)[C@@H](Cc2ccccc2)NC(=O)[C@H](CC(C)C)NC(=O)[C@H](CCCN)NC(=O)[C@H](C(C)C)NC(=O)[C@H](Cc2c[nH]c3ccccc23)NC(=O)[C@@H](CCCNC(=N)N)NC1=O` (HELM PEPTIDE1{L.[dF].P.V.[Orn].L.[dR].W.V.[Orn]}$PEPTIDE1,PEPTIDE1,1:R1-10:R2$$$V2.0), for which the MIC in the data set with Staphylococcus aureus [1] and in the data set on Staphylococcus aureus [3] was 5 µg/mL (≈ 4.03 µM) throughout. Moreover, in data set [2], the concentration for 50% haemolysis (HC50) at 1 h turned out to be 32.8 µg/mL. Besides, the selectivity ratio in data set [4] was 6.56. Besides, in data set [5], the half-inhibitory concentration (IC50) at 24 h is 13.6 µg/mL (≈ 11 µM). In data set [6], the Retention_time amounted to 16.56 min.

Turning to `CC(C)C[C@@H]1NC(=O)[C@H](CCCN)NC(=O)[C@H](C(C)C)NC(=O)[C@@H]2CCCN2C(=O)[C@@H](Cc2ccccc2)NC(=O)[C@H](CC(C)C)NC(=O)[C@H](CCCN)NC(=O)[C@H](C(C)C)NC(=O)[C@H](Cc2c[nH]c3ccccc23)NC(=O)[C@@H](Cc2c[nH]c3ccccc23)NC1=O` (HELM PEPTIDE1{L.[dF].P.V.[Orn].L.[dW].W.V.[Orn]}$PEPTIDE1,PEPTIDE1,1:R1-10:R2$$$V2.0), the MIC in the data set with Staphylococcus aureus [1] and in the data set on Staphylococcus aureus [3] was 4 µg/mL (≈ 3.15 µM) throughout. Moreover, in data set [2], the concentration for 50% haemolysis (HC50) at 1 h is 5.85 µg/mL. Further, in data set [4], the selectivity ratio was found to be 1.46. Besides, the IC50 at 24 h in data set [5] came to 4.64 µg/mL (≈ 3.65 µM). This molecule yielded a Retention_time in data set [6] of 18.78 min.

Values taken from ChEMBL document CHEMBL6074682, “Expanding the therapeutic window of gramicidin S towards a safe and effective systemic treatment of methicillin-resistant S. aureus infections” (Eur J Med Chem, 2025).
